molecular target: T1, E. coli thymidylate kinase (TMPK) (Escherichia coli, UniProt P0A720); test: ATPlite luminescence assay, direction of ATP synthesis; type: biochemical
T1 sequence (P0A720 1-213): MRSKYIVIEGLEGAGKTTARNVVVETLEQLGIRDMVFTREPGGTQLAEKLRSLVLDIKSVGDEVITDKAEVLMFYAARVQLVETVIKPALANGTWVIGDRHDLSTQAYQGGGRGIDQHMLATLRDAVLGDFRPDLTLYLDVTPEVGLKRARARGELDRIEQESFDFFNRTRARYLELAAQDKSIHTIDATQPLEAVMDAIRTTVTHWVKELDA

Row | Compound | IC50
1 | COc1cc(C=C2SC(=S)NC2=O)ccc1OC(C)C [compound 1] | 390 nM
2 | COc1ccc(C=C2SC(=S)NC2=O)cc1O [compound 2] | 2500 nM
3 | CCOc1ccc(C=C2SC(S)=NC2=O)cc1OC [compound 9] | 410 nM
4 | COc1cc(C=C2SC(=S)NC2=O)ccc1OC(C)=O [compound 11] | 480 nM
5 | COc1cc(C=C2SC(=S)NC2=O)ccc1O [compound 12] | 500 nM
6 | C=CCOc1cccc(C=C2SC(=S)NC2=O)c1 [compound 13] | 1000 nM
7 | COc1cc(C=C2SC(=S)NC2=O)cc(OC)c1O [compound 27] | 250 nM
8 | CCOc1cc(C=C2SC(=S)NC2=O)ccc1OC(C)=O [compound 28] | 470 nM
9 | CCOC(=O)COc1ccc(C=C2SC(=S)NC2=O)cc1OC [compound 31] | 680 nM

From article doi:10.1101/2021.02.22.432404v1 (biorxiv, 2021)
